The results in this text go back to PMC9490236, “Accurate de novo design of membrane-traversing macrocycles” (Cell, 2022).

Where a SMILES comes first, the peptide text is derived from it. [ ]: non-standard residue; d: D form. NMeF = CN[C@@H](Cc1ccccc1)C(=O)O; dNMeF = CN[C@H](Cc1ccccc1)C(=O)O; NMeL = CN[C@@H](CC(C)C)C(=O)O; dNMeL = CN[C@H](CC(C)C)C(=O)O; NMeV = CN[C@H](C(=O)O)C(C)C; dNMeA = CN[C@H](C)C(=O)O

For data set [1] the following is noted: PAMPA. For orientation: PAMPA measures passive passage across an artificial lipid membrane.
Another data set in a line: in vitro. The settings on record: PAMPA, PAMPA_Papp_Avg.

One may read the Papp as a coefficient for how fast a substance crosses the barrier. The low end stands for slow passage, the high end for fast passage. Turning to `CC[C@H](C)[C@@H]1NC(=O)[C@H](CC(C)C)N(C)C(=O)[C@H]2CCCN2C(=O)[C@H]2CCCN2C(=O)[C@H](Cc2ccccc2)NC(=O)[C@@H](CC(C)C)NC(=O)[C@H]2CCCN2C(=O)[C@@H]2CCCN2C1=O` [Design D8.27, PHE DPRO DPRO *LEU ILE PRO DPRO DLEU] (cyclo(F[dP][dP][NMeL]IP[dP][dL])), in data set [1], the PAMPA_R1 is given as 2.88E-07 and the PAMPA_R3 worked out at 2.76E-07. The same compound returned an apparent permeability (Papp) in “in vitro” of 0.282 ×10⁻⁶ cm/s.

In data set [1], `CC[C@H](C)[C@@H]1NC(=O)[C@@H](CC(C)C)N(C)C(=O)[C@H](CC(C)C)N(C)C(=O)[C@H](C)NC(=O)[C@H]2CCCN2C(=O)[C@@H]2CCCN2C(=O)[C@@H]2CCCN2C(=O)[C@@H](C(C)C)NC1=O` [Design D8.28, PRO DPRO ALA *LEU *DLEU ILE DVAL PRO] (cyclo(A[NMeL][dNMeL]I[dV]PP[dP])) yielded a PAMPA_R1 of 1.45E-06 and a PAMPA_R3 of 7.65E-07. In “in vitro”, this compound registered an apparent permeability (Papp) of 1.14 ×10⁻⁶ cm/s.

With `CC(C)C[C@H]1NC(=O)[C@@H]2CCCN2C(=O)[C@@H](C(C)C)NC(=O)[C@@H](C)N(C)C(=O)[C@@H](C(C)C)NC(=O)[C@@H]2CCCN2C(=O)[C@@H](Cc2ccccc2)NC(=O)[C@H](CC(C)C)N(C)C(=O)[C@@H](C(C)C)NC1=O` [Design D9.5, PRO DVAL *DALA DVAL PRO DLEU DVAL *LEU DPHE] (cyclo([NMeL][dF]P[dV][dNMeA][dV]P[dL][dV])), in data set [1], the PAMPA_R1 is on record as 3.32E-06 and the PAMPA_R3 was 4.42E-06. For the same compound, in the data set “in vitro”, the Papp came to 3.51 ×10⁻⁶ cm/s.

Consider `CC[C@H](C)[C@@H]1NC(=O)[C@H](Cc2ccccc2)N(C)C(=O)[C@H](CC(C)C)N(C)C(=O)[C@@H](C(C)C)NC(=O)[C@@H](C)NC(=O)[C@@H]2CCCN2C(=O)[C@@H](CC(C)C)NC(=O)[C@@H]2CCCN2C(=O)[C@H](C)NC1=O` [Design D9.6, PRO DALA DVAL *LEU *PHE ILE ALA PRO DLEU], for which, in data set [1], the PAMPA_R1 is listed as 1.38E-06 and the PAMPA_R3 is listed as 1.96E-06. For the same compound, the Papp in “in vitro” worked out at 1.63 ×10⁻⁶ cm/s.

In data set [1], `CC[C@@H](C)[C@H]1NC(=O)[C@H](CC(C)C)N(C)C(=O)[C@H]2CCCN2C(=O)[C@@H](Cc2ccccc2)N(C)C(=O)[C@@H](Cc2ccccc2)N(C)C(=O)[C@H](CC(C)C)N(C)C(=O)[C@@H](C(C)C)NC(=O)[C@@H]2CCCN2C(=O)[C@H](C)NC1=O` [Design D9.9, PRO DVAL *LEU *DPHE *DPHE DPRO *LEU DILE ALA] (cyclo(AP[dV][NMeL][dNMeF][dNMeF][dP][NMeL][dI])) yielded a PAMPA_R1 of 7.88E-07 and a PAMPA_R3 of 2.31E-07. The same compound yielded a Papp in “in vitro” of 0.575 ×10⁻⁶ cm/s.

`CC[C@H](C)[C@@H]1NC(=O)[C@@H](CC(C)C)N(C)C(=O)[C@H](CC(C)C)N(C)C(=O)[C@@H](C)N(C)C(=O)[C@@H](Cc2ccccc2)NC(=O)[C@H](C(C)C)NC(=O)[C@@H](C)NC(=O)[C@@H]2CCCN2C(=O)[C@H]2CCCN2C1=O` [Design D9.10, VAL DPHE *DALA *LEU *DLEU ILE DPRO PRO DALA] (cyclo([dA]V[dF][dNMeA][NMeL][dNMeL]I[dP]P)): in data set [1], the PAMPA_R1 was 1.20E-06 and the PAMPA_R3 is given as 6.09E-07. In “in vitro”, this compound gave a Papp of 0.826 ×10⁻⁶ cm/s.

In data set [1], `CC[C@H](C)[C@@H]1NC(=O)[C@@H](C)N(C)C(=O)[C@@H](C)N(C)C(=O)[C@@H]2CCCN2C(=O)[C@H](CC(C)C)NC(=O)[C@H](CC(C)C)NC(=O)[C@@H](CC(C)C)NC(=O)[C@@H]2CCCN2C(=O)[C@H]2CCCN2C1=O` [Design D9.11, PRO DLEU LEU LEU PRO *DALA *DALA ILE DPRO] (cyclo([dL]LLP[dNMeA][dNMeA]I[dP]P)) displayed a PAMPA_R1 of 2.61E-07 and a PAMPA_R3 of 2.10E-07. The compound also returned a Papp in the data set “in vitro” of 0.223 ×10⁻⁶ cm/s.

In data set [1], `CC[C@@H](C)[C@H]1NC(=O)[C@H]2CCCN2C(=O)[C@H]([C@@H](C)CC)NC(=O)[C@H](CC(C)C)N(C)C(=O)[C@H]2CCCN2C(=O)[C@@H]2CCCN2C(=O)[C@H](Cc2ccccc2)N(C)C(=O)[C@H](Cc2ccccc2)NC(=O)[C@H]([C@@H](C)CC)NC1=O` [Design D9.13, DPRO DILE ILE PHE *PHE PRO DPRO *LEU ILE] (cyclo(F[NMeF]P[dP][NMeL]I[dP][dI]I)) displayed a PAMPA_R1 of 3.63E-06 and a PAMPA_R3 of 3.09E-06. This compound came in with an apparent permeability coefficient (Papp) in “in vitro” of 3.37 ×10⁻⁶ cm/s.

In data set [1], `CC[C@H](C)[C@@H]1NC(=O)[C@@H](CC(C)C)NC(=O)[C@@H]2CCCN2C(=O)[C@@H]2CCCN2C(=O)[C@@H](CC(C)C)NC(=O)[C@@H]2CCCN2C(=O)[C@H]2CCCN2C(=O)[C@@H](C(C)C)NC(=O)[C@@H](C)N(C)C1=O` [Design D9.14, PRO DLEU ILE *DALA DVAL DPRO PRO DLEU PRO] (cyclo([dL]PP[dL]I[dNMeA][dV][dP]P)) yielded a PAMPA_R1 of 6.02E-07 and a PAMPA_R3 of 5.63E-07. The Papp in the data set “in vitro” was determined as 0.584 ×10⁻⁶ cm/s.

In data set [1], `CC[C@H](C)[C@@H]1NC(=O)[C@@H](C)NC(=O)[C@@H]2CCCN2C(=O)[C@H]2CCCN2C(=O)[C@@H]2CCCN2C(=O)[C@@H](C)NC(=O)[C@@H](Cc2ccccc2)NC(=O)[C@@H](CC(C)C)N(C)C(=O)[C@@H](CC(C)C)N(C)C1=O` [Design D9.15, PRO DPRO PRO DALA ILE *DLEU *DLEU DPHE DALA] (cyclo([dA]I[dNMeL][dNMeL][dF][dA]P[dP]P)) registered a PAMPA_R1 of 9.95E-07 and a PAMPA_R3 of 6.20E-07. For the same compound, in “in vitro”, the Papp stood at 0.85 ×10⁻⁶ cm/s.

As to `CC(C)C[C@@H]1C(=O)N[C@H](C(C)C)C(=O)N(C)[C@@H](C(C)C)C(=O)N2CCC[C@H]2C(=O)N2CCC[C@@H]2C(=O)N[C@@H](C)C(=O)N(C)[C@@H](Cc2ccccc2)C(=O)N(C)[C@H](CC(C)C)C(=O)N[C@H](C)C(=O)N1C` [Design D9.17, DPRO ALA *PHE *DLEU DALA *DLEU DVAL *VAL PRO] (cyclo(A[NMeF][dNMeL][dA][dNMeL][dV][NMeV]P[dP])), in data set [1], the PAMPA_R1 was 2.83E-06 and the PAMPA_R3 came to 4.13E-07. The apparent permeability (Papp) in “in vitro” was 1.74 ×10⁻⁶ cm/s.

In data set [1], `CC(C)C[C@@H]1C(=O)N(C)[C@H](CC(C)C)C(=O)N2CCC[C@H]2C(=O)N[C@H](CC(C)C)C(=O)N2CCC[C@@H]2C(=O)N2CCC[C@@H]2C(=O)N(C)[C@H](CC(C)C)C(=O)N[C@H](Cc2ccccc2)C(=O)N[C@@H](C)C(=O)N1C` [Design D9.18, ALA *DLEU *DLEU PRO DLEU DPRO DPRO *DLEU DPHE] (cyclo(A[dNMeL][dNMeL]P[dL][dP][dP][dNMeL][dF])) showed a PAMPA_R1 of 1.88E-06 and a PAMPA_R3 of 1.97E-06. The compound further yielded an apparent permeability (Papp) in the data set “in vitro” of 1.76 ×10⁻⁶ cm/s.

In data set [1], `CC(C)C[C@@H]1NC(=O)[C@@H](CC(C)C)NC(=O)[C@@H](CC(C)C)N(C)C(=O)[C@@H](CC(C)C)N(C)C(=O)[C@H](C(C)C)NC(=O)[C@@H](C)N(C)C(=O)[C@@H]2CCCN2C(=O)[C@@H]2CCCN2C(=O)[C@@H](C)N(C)C1=O` [Design D9.19, PRO *DALA VAL *DLEU *DLEU DLEU LEU *DALA PRO] (cyclo(L[dNMeA]PP[dNMeA]V[dNMeL][dNMeL][dL])) had a PAMPA_R1 of 1.47E-06 and a PAMPA_R3 of 1.16E-06. Moreover, the Papp in the data set “in vitro” was determined as 1.28 ×10⁻⁶ cm/s.
